Source: patent US9074180B2, “Culture medium containing kinase inhibitors, and uses thereof” (THE UNIVERSITY COURT OF THE UNIVERSITY OF EDINBURGH, priority 2006, dated 2015)

Assays:
Mouse ES cells = experiment: Mouse ES cell self-renewal culture; type: cell-based; details: for ES cell propagation: single inhibitor in N2B27 medium containing LIF without BMP4; for Oct4/Sox1 marker status: single inhibitor in N2B27 medium without added LIF; for toxicity to ES cells: GSK-3 inhibitor alone in ES cell culture
Method: Mouse ES cells were cultured in the presence of an inhibitor of the FGF receptor and a MEK inhibitor. […] Undifferentiated cultures can be continuously passaged in these conditions while retaining expression of the pluripotency markers Oct4, Nanog, and Rex1.
However, these cells invariably differentiate and/or die after passaging. To reduce potential toxic side effects we used 2.5 fold lower doses and combined the two inhibitors together. […] Viability is lower and population doubling time slower in this two inhibitor (2i) condition than in the presence of ILIF, but differentiation is effectively restrained.
We reasoned that reduced growth of ES cells in 2i media could be due to increased activity of glycogen synthase kinase 3 (GSK-3) consequent to release of inhibitory phosphorylation by Rsk downstream of pErk. […] In serum-free N2B27 medium the differentiation response is reduced and some colonies appear morphologically Undifferentiated for several days.
However, when CHIR99021 is combined with 2i the differentiation response is lost entirely. Furthermore, CHIR99021 modulated the response to 2i such that ES cells grew as compact three dimensional colonies rather than flattened monolayers typically seen in LIF plus serum/BMP or in 2i. Differentiation was negligible in the three inhibitors (3i) and ES cells propagated rapidly. Most importantly undifferentiated colonies grew up at high efficiency after passaging (data not shown).

[1] = test system: cyclin-dependent kinases (CDKs); details: at concentrations that completely block GSK-3 activity; cited from earlier work
FGF receptor = experiment: Substitution of FGFR antagonist in culture medium; type: cell-based; details: substituting for SU5402
Method: Suitable concentrations of SU5402 are in the micromolar range, such as from 0.1-20 μM. Some embodiments use concentrations in the range 0.5-10 μM, especially in the range 1-5 μM.

Nanog = Nanog levels and Nanog dependence of self-renewal in ES cells; type: cell-based; details: data not shown
Description: In fact, these cells differentiated.

[2] = test system: RH ES cells fused to Neural Stem cells (NS TGFP); experiment: ES-NS cell fusion, pluripotent hybrid colony formation (reprogramming); type: cell-based
Method: (FIGS. 1A-1C)—FACS analysis for red and green fluorescence of RH×NS TGFP fusions. (FIG. 1A) Fusion mixture 24 hours after PEG treatment; (FIG. 1B) Purity check of FACS sorted hybrids gated in A. (FIG. 1C) Hybrids sorted in A were plated and the formed colonies were scored as percentage of colonies per plated hybrid. These scores take into account the purity of the FACS sorted cells. (FIG. 1D) Summary of data. (FIG. 1E) Examples of hybrid colony morphology.
RH ES cells, which express constitutively the dsRed fluorescent protein and hygromycin resistance, were fused to foetal derived Neural Stem cells (NS TGFP) that express the fusion protein TauGFP linked via an IRES to puromycin resistance. […] In the control no PD184352 was added. Treated and untreated primary hybrids were sorted 24 hours after fusion and then plated (FIG. 1A-C). Hygromycin and puromycin selection were added to the ES medium 3 days later. […] This effect is likely to be mediated by the increased levels of Nanog in treated RH cells. Accordingly, if Nanog is endogenously expressed then the MEK inhibitor can be used to upregulate Nanog and achieve associated effects, such as increased reprogramming.

Human ES cells = experiment: Human ES cell culture; type: cell-based; details: media supplemented with CHIR99021 and PD184352; data not shown

## Cc1c[nH]c(-c2cnc(NCCNc3ccc(C#N)cn3)nc2-c2ccc(Cl)cc2Cl)n1 [CHIR99021]
Mouse ES cells; 3 μM, in the presence of serum, even with LIF
  differentiation response: promotes differentiation
Mouse ES cells; serum-free N2B27 medium, GSK-3 inhibitor alone
  persistence of undifferentiated cells after passaging: Undifferentiated cells do not persist after passaging
[1]
  cross reaction with CDKs: does not cross react

## CCN(CC)CCCCNc1ncc2cc(-c3cc(OC)cc(OC)c3)c(NC(=O)NC(C)(C)C)nc2n1 [PD173074]
FGF receptor
  fully effective concentration relative to SU5402 (fold lower): about 100 fold

## O=C(NOCC1CC1)c1ccc(F)c(F)c1Nc1ccc(I)cc1Cl [PD184352]
Nanog; Nanog −/− ES cells
  ES cell self-renewal in Nanog −/− ES cells: failed to show enhancing of ES cell self-renewal
Nanog
  levels of Nanog in ES cells: increases the levels of Nanog
Mouse ES cells
  ES cell propagation: sufficient for robust ES cell propagation
  Oct4/Sox1 marker status: remain Oct4 positive and Sox1 negative for several days
[2]; PD184352 treated RH cells (3 μM)
  percentage of hybrid colonies formed per plated hybrid: 2.25%
[2]; RH cells treated 3 days prior and after fusion with 3 μM PD184352, vs untreated control
  enhancement of ES-NS hybrid colony formation: 45 fold

## Cn1cc(C2=C(c3ccc(Cl)cc3Cl)C(=O)NC2=O)c2ccccc21 [SB216763]
Mouse ES cells
  toxicity to ES cells: somewhat toxic

## O=C1NC(=O)C(c2ccccc2[N+](=O)[O-])=C1Nc1ccc(O)c(Cl)c1 [SB415286]
Mouse ES cells
  toxicity to ES cells: somewhat toxic

## Cc1c[nH]c(/C=C2\C(=O)Nc3ccccc32)c1CCC(=O)O [SU5402]
Mouse ES cells
  ES cell propagation: sufficient for robust ES cell propagation
  Oct4/Sox1 marker status: remain Oct4 positive and Sox1 negative for several days

## LIF: Leukaemia Inhibitory Factor, gp130 receptor binding cytokine
Mouse ES cells; media supplemented with CHIR99021 and PD184352, data not shown
  propagation of cells on addition of LIF: further improved propagation
Human ES cells
  propagation of cells on addition of LIF: further improved propagation
